Test results: patent publication US20070269832A1, “Novel affinity labels” (priority 2001, published 2007)
Peptide text beside a SMILES is read from it. * marks the point of attachment. Cbz = O=C(OCc1ccccc1)*; CH2F = FC*

How the values were obtained:
Assay type in all cases: cell-based, Human
HL-60 cells [1] = assay: Labeling of untreated and CPT-treated HL-60 cells with FLISP (FFCK, FLCK) or FLICA reagents, fluorescence measured by LSC; conditions: for binding of the ligand by cells treated with CPT vs untreated cells (in words): HL-60, 3 h CPT, combined with PI
Method: Preparation of Reagents: Fluorescent Inhibitors of Serine Proteases (FLISP) reagents, 5(6)-Carboxyfluoresceinyl-L-phenylalanylchloromethyl ketone (FFCK) and 5(6)-carboxyfluoresceinyl-L-leucylchloromethyl ketone (FLCK) were dissolved initially in dimethyl sulfoxide (DMSO; Sigma) to yield a 10 mM concentration. Aliquots were made from this stock solution and stored frozen at −20° C. protected from light. This reagent stock was then diluted directly into the cell culture media to give a 1× working reagent concentration of 10 μM. Dilution of the reagent into aqueous (cell culture) media is done just prior to cell exposure to preserve the labile chloromethyl ketone reactivity of FLISP reagent.
Fluorescent inhibitors of caspases (FLICA) reagents, namely the fluorescein labeled VAD-FMK (FAM-VAD-FMK) and sulforhodamine labeled VAD-FMK (SR-VAD-FMK) (Immunochemistry Technologies; Bloomington, Minn.) were both designed to detect the presence of active caspases within apoptotic cells. These inhibitors were dissolved in DMSO to obtain a 150× concentrated stock solution. Aliquots of these solutions were stored at −20 °C in the dark. Prior to use, a 30× working solution of either FAM-VAD-FMK or SR-VAD-FMK was prepared by diluting the stock solution 1:5 in phosphate buffered saline (PBS) and mixing until the solution become clear. The 30× working solution was diluted 1:30 cell culture media to give a final 1× working reagent concentration of 10 μM.
(§1) Cells: Human promyelocytic leukemic HL-60 cells were obtained from American Type Culture Collection (ATCC; Rockville, Md.). […]
Cell staining and fluorescence measurement by LSC: The HL-60 cells from the untreated or CPT treated cultures were centrifuged (200 g, 5 min) and resuspended in PBS at approximately 10^4 cells per 5 ml volume. […]

HL-60 cells [2] = assay: Dual labeling of CPT-treated HL-60 cells with SR-VAD-FMK and FFCK or FLCK (fluorescence microscopy / LSC); conditions: CPT-treated HL-60, dual labeling
Method: Cell staining and fluorescence measurement by LSC: The HL-60 cells from the untreated or CPT treated cultures were centrifuged (200 g, 5 min) and resuspended in PBS at approximately 10^4 cells per 5 ml volume. Cells were then attached electrostatically to microscope slides as described before (Bedner et al., Exp Cell Res., 2000, 259:308-313; Smolewski et al., Cytometry, 2001, 44:73-82). Briefly, the attachment was achieved by the incubation (15 min) of cells suspended in serum-free PBS in shallow (<1 mm depth; 1.5×1.5 cm) wells on horizontally placed microscope slides that were rinsed in 100% ethanol and air dried prior to use, at 100% humidity. The electrostatically attached cells remain viable, exclude such dyes as trypan blue and propidium iodide (PI), and have unchanged morphology for several hours (Bedner et al., Exp Cell Res., 2000, 259:308-313). After the cells became attached, PBS was removed from the wells and was replaced by 150 μL of the culture medium containing 10% FCS. FLISP staining solutions were prepared by diluting 5 μL of the 10 mM FFCK or FLCK stock solution into 5 mL of culture medium yielding a final FLISP concentration 10 μM. The medium from above the cells on the slide was then replaced with 150 μL of this staining solution. A polyethylene foil (2.5×2.5 cm) was positioned over the staining solution to prevent drying. The slides were subsequently incubated for 1 h at 37° C. in a closed box with wet tissue to additionally prevent drying. […] The slides were placed on the motorized stage of a laser scanning microscope (LSC; Kamentsky, L. A., Methods Cell Biol, 2001, 63:51-87; Darzynkiewicz et al., Exp Cell Res, 1999, 249:1-12) for fluorescence measurement. Cell fluorescence was then measured using a 488 nm excitation laser line and recording integral and maximal pixel intensities of green FFCK or FLCK. FLICA staining was measured under the same conditions as FLISP staining. Fluorescence can also be measured by flow cytometer and fluorescence microscopy. […]

HL-60 cells [3] = assay: Pretreatment of HL-60 cells with unlabeled protease inhibitors during CPT induction of apoptosis, then binding of FAM-VAD-FMK, FFCK or FLCK measured by LSC; conditions: HL-60, CPT 3 h in presence of the unlabeled inhibitor; mean (SE) of three experiments
Method: Unlabeled (cold) N-tosyl-phenylalanylchloromethyl ketone (TPCK) and N-tosyl-lysylchloromethyl keytone (TLCK) were obtained from Sigma Chemical Co.; concentrated solutions at 10 mM were freshly prepared in DMSO. Further dilutions were made in tissue culture media.
The non-fluorescent poly-caspase inhibitor Z-VAD-FMK was obtained from Enzyme Systems Products. A 20 mM stock solution of Z-VAD-FMK was made in DMSO (Sigma) and the inhibitor was then diluted in culture media to obtain the final 50 μM concentration in the cultures.
as §1
Cell staining and fluorescence measurement by LSC: The HL-60 cells from the untreated or CPT treated cultures were centrifuged (200 g, 5 min) and resuspended in PBS at approximately 10^4 cells per 5 ml volume. […] The slides were placed on the motorized stage of a laser scanning microscope (LSC; Kamentsky, L. A., Methods Cell Biol, 2001, 63:51-87; Darzynkiewicz et al., Exp Cell Res, 1999, 249:1-12) for fluorescence measurement. Cell fluorescence was then measured using a 488 nm excitation laser line and recording integral and maximal pixel intensities of green FFCK or FLCK. FLICA staining was measured under the same conditions as FLISP staining. Fluorescence can also be measured by flow cytometer and fluorescence microscopy. […]

Compound	binding of the ligand by cells treated with CPT vs untreated cells (in words) (HL-60 cells [1])	fluorescence of labeled cells (intensity and distribution, in words) (HL-60 cells [2])	fluorescence intensity of FLCK labeled cells, greater compared to FFCK labeled cells (HL-60 cells [1]; identical settings of the photomultiplier sensitivity)	percent decrease in frequency of FAM-VAD-FMK labeled cells (caspase activation) vs CPT without unlabeled inhibitor (HL-60 cells [3]) [%]
5(6)-Carboxyfluoresceinyl-L-phenylalanylchloromethyl ketone [FFCK]	induced binding	strong		
5(6)-carboxyfluoresceinyl-L-leucylchloromethyl ketone [FLCK]	induced binding	faint and more uniformly distributed	approximately 60%	
COC(=O)C[C@H](NC(=O)[C@H](C)NC(=O)[C@@H](NC(=O)OCc1ccccc1)C(C)C)C(=O)CF [Z-VAD-FMK] (Cbz-Val-Ala-Asp(OMe)-CH2F)				95.0
Sulforhodaminyl-L-valylalanylaspartylflyoromethyl ketone [SR-VAD-FMK, reference compound]		uniformly dispersed		
